Experimental data from ChEMBL document CHEMBL3885861, “Open TG-GATES”.

Species on record: Rattus norvegicus
Assay: Open TG-GATES - Regimen: Single
Format: toxicity, organism-based, Sprague-Dawley
Set-up: regimen Single, gender Male, age 6 weeks
Settings: in vivo, po, route gavage; for APTT / Bas / Eos / Fbg / Hb / Ht / MCH / MCHC / MCV / Mono / PT / Plat / RBC / Ret / WBC: tissue Blood; for ALP / ALT / CRE / DBIL / GLC / IP / K / LDH / Na / PL / RALB / TBIL / TC / TG / TP / gamma-GTP: tissue Plasma
[1] = 0 mg/kg, 3 h, dose level Control
[2] = 0 mg/kg, 6 h, dose level Control
[3] = 0 mg/kg, 9 h, dose level Control
[4] = 0 mg/kg, 24 h, dose level Control

## CCN(CC)C(=S)SSC(=S)N(CC)CC
[1]
  TERMINAL_BW: 212.4 g
  APTT: 21.9 s
  Bas: 0%
  Eos: 0.6%
  Fbg: 285.8 mg/dL
  Hb: 13.2 g/dL
  Ht: 40.8%
  MCH: 20.6 pg
  MCHC: 32.3%
  MCV: 63.8 fL
  Mono: 2.6%
  PT: 16.5 s
  Plat: 98.3 x10_4/uL
  RBC: 639.2 x10_4/ul
  Ret: 7.6%
  WBC: 97.5 x10_2/uL
  ALP: 1602.8 IU/L
  ALT: 48 IU/L
  CRE: 0.2 mg/dL
  DBIL: 0 mg/dL
  GLC: 188.6 mg/dL
  IP: 7.8 mg/dL
  K: 4.2 meq/L
  LDH: 236.6 IU/L
  Na: 141.4 meq/L
  PL: 138 mg/dL
  RALB: 3 g/dL
  TBIL: 0.006 mg/dL
  TC: 73.6 mg/dL
  TG: 72.4 mg/dL
  TP: 5.5 g/dL
  gamma-GTP: 1 IU/L
[2]
  TERMINAL_BW: 208.9 g
  APTT: 21.8 s
  Bas: 0%
  Eos: 0.8%
  Fbg: 286.4 mg/dL
  Hb: 12.8 g/dL
  Ht: 39.4%
  MCH: 20.1 pg
  MCHC: 32.4%
  MCV: 62 fL
  Mono: 2%
  PT: 16.6 s
  Plat: 119.2 x10_4/uL
  RBC: 635.6 x10_4/ul
  Ret: 7.1%
  WBC: 102.5 x10_2/uL
  ALP: 1209.4 IU/L
  ALT: 38.8 IU/L
  CRE: 0.1 mg/dL
  DBIL: 0 mg/dL
  GLC: 184 mg/dL
  IP: 9.5 mg/dL
  K: 4.4 meq/L
  LDH: 188 IU/L
  Na: 141 meq/L
  PL: 124.6 mg/dL
  RALB: 3 g/dL
  TBIL: 0.004 mg/dL
  TC: 71.8 mg/dL
  TG: 56.8 mg/dL
  TP: 5.3 g/dL
  gamma-GTP: 1 IU/L
[3]
  TERMINAL_BW: 212.5 g
  APTT: 23.3 s
  Bas: 0%
  Eos: 0.8%
  Fbg: 297.2 mg/dL
  Hb: 12.9 g/dL
  Ht: 39.9%
  MCH: 20.2 pg
  MCHC: 32.3%
  MCV: 62.6 fL
  Mono: 2.6%
  PT: 16.4 s
  Plat: 107.7 x10_4/uL
  RBC: 638.6 x10_4/ul
  Ret: 7.1%
  WBC: 111.4 x10_2/uL
  ALP: 1326.8 IU/L
  ALT: 33.6 IU/L
  CRE: 0.2 mg/dL
  DBIL: 0.002 mg/dL
  GLC: 198.8 mg/dL
  IP: 10 mg/dL
  K: 4.1 meq/L
  LDH: 130 IU/L
  Na: 140.8 meq/L
  PL: 132.4 mg/dL
  RALB: 3.1 g/dL
  TBIL: 0.008 mg/dL
  TC: 72.6 mg/dL
  TG: 82.4 mg/dL
  TP: 5.4 g/dL
  gamma-GTP: 1 IU/L
[4]
  TERMINAL_BW: 229.8 g
  APTT: 20.8 s
  Bas: 0%
  Eos: 1%
  Fbg: 278.6 mg/dL
  Hb: 12.5 g/dL
  Ht: 38.4%
  MCH: 20.4 pg
  MCHC: 32.6%
  MCV: 62.5 fL
  Mono: 2.6%
  PT: 16.4 s
  Plat: 106.2 x10_4/uL
  RBC: 613.8 x10_4/ul
  Ret: 7.5%
  WBC: 83.8 x10_2/uL
  ALP: 1487.8 IU/L
  ALT: 40.4 IU/L
  CRE: 0.1 mg/dL
  DBIL: 0 mg/dL
  GLC: 193.4 mg/dL
  IP: 7.8 mg/dL
  K: 4.2 meq/L
  LDH: 167.6 IU/L
  Na: 141.2 meq/L
  RALB: 3 g/dL
  TBIL: 0.01 mg/dL
  TC: 78.4 mg/dL
  TG: 81.6 mg/dL
  TP: 5.5 g/dL
  gamma-GTP: 1.8 IU/L
60 mg/kg, 3 h, dose level Low
  TERMINAL_BW: 215.7 g
  APTT: 20.7 s
  Bas: 0%
  Eos: 0.6%
  Fbg: 298.2 mg/dL
  Hb: 12.9 g/dL
  Ht: 39.9%
  MCH: 20.2 pg
  MCHC: 32.3%
  MCV: 62.6 fL
  Mono: 3.6%
  PT: 16.3 s
  Plat: 128.9 x10_4/uL
  RBC: 638.2 x10_4/ul
  Ret: 8.8%
  WBC: 84.6 x10_2/uL
  ALP: 1871.6 IU/L
  ALT: 41.6 IU/L
  CRE: 0.1 mg/dL
  DBIL: 0.002 mg/dL
  GLC: 178.2 mg/dL
  IP: 8.8 mg/dL
  K: 4.1 meq/L
  LDH: 188.6 IU/L
  Na: 141.4 meq/L
  PL: 128.6 mg/dL
  RALB: 3.2 g/dL
  TBIL: 0.016 mg/dL
  TC: 71 mg/dL
  TG: 70 mg/dL
  TP: 5.5 g/dL
  gamma-GTP: 1.4 IU/L
60 mg/kg, 6 h, dose level Low
  TERMINAL_BW: 211.5 g
  APTT: 23.2 s
  Bas: 0%
  Eos: 0.8%
  Fbg: 293 mg/dL
  Hb: 13.2 g/dL
  Ht: 40.9%
  MCH: 20.3 pg
  MCHC: 32.4%
  MCV: 62.6 fL
  Mono: 3.4%
  PT: 16.3 s
  Plat: 125.2 x10_4/uL
  RBC: 653.8 x10_4/ul
  Ret: 7.3%
  WBC: 99 x10_2/uL
  ALP: 1256.6 IU/L
  ALT: 36.4 IU/L
  CRE: 0.1 mg/dL
  DBIL: 0 mg/dL
  GLC: 179 mg/dL
  IP: 9.1 mg/dL
  K: 4.3 meq/L
  LDH: 181.8 IU/L
  Na: 141.6 meq/L
  PL: 125.2 mg/dL
  RALB: 3 g/dL
  TBIL: 0.008 mg/dL
  TC: 68.6 mg/dL
  TG: 59.2 mg/dL
  TP: 5.3 g/dL
  gamma-GTP: 1 IU/L
60 mg/kg, 9 h, dose level Low
  TERMINAL_BW: 210.6 g
  APTT: 23 s
  Bas: 0%
  Eos: 0.2%
  Fbg: 307.2 mg/dL
  Hb: 13.1 g/dL
  Ht: 40.1%
  MCH: 20.2 pg
  MCHC: 32.5%
  MCV: 62.3 fL
  Mono: 2.6%
  PT: 15.8 s
  Plat: 121 x10_4/uL
  RBC: 645 x10_4/ul
  Ret: 7.5%
  WBC: 93.7 x10_2/uL
  ALP: 1515 IU/L
  ALT: 32.8 IU/L
  CRE: 0.1 mg/dL
  DBIL: 0.002 mg/dL
  GLC: 188.8 mg/dL
  IP: 9.6 mg/dL
  K: 4.1 meq/L
  LDH: 160.4 IU/L
  Na: 141.2 meq/L
  PL: 149.4 mg/dL
  RALB: 3.1 g/dL
  TBIL: 0.018 mg/dL
  TC: 81.6 mg/dL
  TG: 99 mg/dL
  TP: 5.5 g/dL
  gamma-GTP: 1 IU/L
60 mg/kg, 24 h, dose level Low
  TERMINAL_BW: 213.4 g
  APTT: 21.8 s
  Bas: 0%
  Eos: 0.4%
  Fbg: 274.6 mg/dL
  Hb: 12.6 g/dL
  Ht: 39%
  MCH: 20.3 pg
  MCHC: 32.3%
  MCV: 62.9 fL
  Mono: 2%
  PT: 16.6 s
  Plat: 117.1 x10_4/uL
  RBC: 620.4 x10_4/ul
  Ret: 7%
  WBC: 124.3 x10_2/uL
  ALP: 1307.4 IU/L
  ALT: 33.8 IU/L
  CRE: 0.2 mg/dL
  DBIL: 0 mg/dL
  GLC: 178 mg/dL
  IP: 6.5 mg/dL
  K: 4.3 meq/L
  LDH: 187.8 IU/L
  Na: 141.4 meq/L
  PL: 128.2 mg/dL
  RALB: 2.8 g/dL
  TBIL: 0.006 mg/dL
  TC: 74.6 mg/dL
  TG: 98 mg/dL
  TP: 5.1 g/dL
  gamma-GTP: 1 IU/L
